Experimental data taken from patent publication US20150105252A1, “SUBSTITUTED PYRAZOLES AS HERBICIDES” (E I DU PONT DE NEMOURS AND COMPANY, priority 2013, published 2015).

Columns and labels:
soybean = assay: Test C postemergence; format: in vivo, Glycine max; details: for Soybean plant response rating / Plant response rating, Soybean: postemergence
In short: (§1)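 Herbicidal effect is expressed as percent visual control (0–100) judged against untreated plants 13 to 15 days after treatment in the greenhouse. Preemergence pots contained seeds in a soil–sand blend; postemergence plants, 2–18 cm tall, grew in peat-based planting medium.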

sedge, umbrella = assay: Test B flood; format: in vivo, Cyperus difformis; details: 250 g ai/ha, visual rating on 0 to 100 scale (0 no effect, 100 complete control), 13 to 15 days
In short: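 Plants were grown to the 2-leaf stage, then pots were flooded to 3 cm above the soil and compounds were applied directly into the paddy water. Water depth was held for the whole test; after 13 to 15 days in a greenhouse, injury was visually rated against untreated controls (0 = no effect, 100 = complete control).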

pigweed [1] = assay: Test C postemergence; format: in vivo, Amaranthus retroflexus; details: for Pigweed plant response rating / Plant response rating, Pigweed: postemergence; for Pigweed plant response rating: 62 g ai/ha, scale 0 to 100
In short: as §1

pigweed [2] = assay: Test A postemergence; format: in vivo, Amaranthus retroflexus
In short: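 Scoring was visual, on a scale where 100 means complete control and 0 means no effect, comparing treated with untreated plants around 10 days post-application. Compounds in surfactant-containing non-phytotoxic solvent were sprayed onto soil preemergence or onto one- to two-leaf seedlings (2–10 cm) postemergence.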

oat, wild = assay: Test C postemergence; format: in vivo, Avena fatua; details: for Plant response rating (scale of 0 to 100 where 0 is no effect and 100 is complete control), Oat, Wild: Postemergence, 31 g ai/ha, visually evaluated after 13 to 15 days; for Oat, Wild plant response rating / Plant response rating, Oat, Wild: postemergence; for Oat, Wild plant response rating: 62 g ai/ha, scale 0 to 100
In short: as §1

lambsquarters = assay: Test C postemergence; format: in vivo, Chenopodium album; details: for Plant response rating (scale of 0 to 100 where 0 is no effect and 100 is complete control), Lambsquarters: Postemergence, 31 g ai/ha, visually evaluated after 13 to 15 days; for Lambsquarters plant response rating / Plant response rating, Lambsquarters: postemergence; for Lambsquarters plant response rating: 62 g ai/ha, scale 0 to 100
In short: as §1

wheat = assay: Test C preemergence; format: in vivo, Triticum aestivum; details: preemergence; for Plant response rating, Wheat: 125 g ai/ha, scale 0 to 100, 0 = no effect, 100 = complete control
In short: as §1

ragweed = assay: Test C preemergence; format: in vivo, Ambrosia elation; details: preemergence; for Plant response rating, Ragweed: 125 g ai/ha, scale 0 to 100, 0 = no effect, 100 = complete control
In short: as §1

ryegrass, Italian [3] = assay: Test C postemergence; format: in vivo, Lolium multiflorum
In short: as §1

ryegrass, Italian [4] = assay: Test C preemergence; format: in vivo, Lolium multiflorum; details: preemergence; for Plant response rating, Ryegrass, Italian: 125 g ai/ha, scale 0 to 100, 0 = no effect, 100 = complete control
In short: as §1

[5] = Postemergence, 31 g ai/ha, visually evaluated after 13 to 15 days
[6] = 250 g ai/ha, scale 0 to 100 (0 no effect, 100 complete control)
[7] = 125 g ai/ha, scale 0 to 100, 0 no effect, 100 complete control
[8] = Postemergence, 500 g ai/ha, 0 to 100 scale (0 no effect, 100 complete control)
[9] = 31 g ai/ha, visual rating, scale 0 to 100 (0 no effect, 100 complete control), 13 to 15 days
[10] = 62 g ai/ha, scale 0 to 100 (0 no effect, 100 complete control), 13 to 15 days
[11] = 250 g ai/ha, scale 0 to 100, 0 is no effect, 100 is complete control
[12] = postemergence, 250 g ai/ha, scale 0 to 100 (0 no effect, 100 complete control)
[13] = postemergence, 125 g ai/ha, scale 0 to 100, 0 no effect, 100 complete control

Compound: CCCNC(=O)c1cc(OCC)n(Cc2ccnc(OC(F)F)c2)n1 [Compound 136]
- Plant response rating (scale of 0 to 100 where 0 is no effect and 100 is complete control), Soybean (soybean; [5]): 90
- Soybean plant response rating (soybean; 62 g ai/ha, scale 0 to 100): 70
- Plant response rating, Soybean (soybean; [6]): 95
- Plant response rating, Soybean (soybean; [7]): 95
- Plant response rating, Sedge, Umbrella (sedge, umbrella): 80
- Plant response rating (scale of 0 to 100 where 0 is no effect and 100 is complete control), Pigweed (pigweed [1]; [5]): 40
- Pigweed plant response rating (pigweed [1]): 65
- Plant response rating, Pigweed (pigweed [1]; [6]): 80
- Plant response rating, Pigweed (pigweed [1]; [7]): 70
- Pigweed plant response rating (pigweed [2]; [8]): 100
- Pigweed plant response rating (pigweed [2]; postemergence, 125 g ai/ha, about 10 days, visual rating on 0 to 100 scale (0 no effect, 100 complete control)): 80
- Plant response rating (scale of 0 to 100 where 0 is no effect and 100 is complete control), Oat, Wild (oat, wild): 5
- Oat, Wild plant response rating (oat, wild): 5
- Plant response rating, Oat, Wild (oat, wild; [6]): 45
- Plant response rating, Oat, Wild (oat, wild; [7]): 10
- Plant response rating (scale of 0 to 100 where 0 is no effect and 100 is complete control), Lambsquarters (lambsquarters): 80
- Lambsquarters plant response rating (lambsquarters): 85
- Plant response rating, Lambsquarters (lambsquarters; [6]): 95
- Plant response rating, Lambsquarters (lambsquarters; [7]): 98
- Wheat plant response rating (wheat; [9]): 10
- Wheat plant response rating (wheat; [10]): 65
- Plant response rating, Wheat (wheat; 13 to 15 days): 95
- Wheat plant response rating (wheat; [11]): 95
- Ragweed plant response rating (ragweed; [9]): 45
- Ragweed plant response rating (ragweed; [10]): 75
- Plant response rating, Ragweed (ragweed; 13 to 15 days): 75
- Ragweed plant response rating (ragweed; [11]): 98
- Plant response rating (scale of 0 to 100 where 0 is no effect and 100 is complete control), Ryegrass, Italian (ryegrass, Italian [3]; [5]): 5
- Ryegrass, Italian plant response rating (ryegrass, Italian [3]; postemergence, 62 g ai/ha, scale 0 to 100): 5
- Plant response rating, Ryegrass, Italian (ryegrass, Italian [3]; [12]): 30
- Plant response rating, Ryegrass, Italian (ryegrass, Italian [3]; [13]): 5
- Ryegrass, Italian plant response rating (ryegrass, Italian [4]; [9]): 55
- Ryegrass, Italian plant response rating (ryegrass, Italian [4]; [10]): 90
- Plant response rating, Ryegrass, Italian (ryegrass, Italian [4]; 13 to 15 days): 95
- Ryegrass, Italian plant response rating (ryegrass, Italian [4]; [11]): 95

Compound: CCCc1cc(C(=O)NC2CC2)nn1Cc1ccnc(OC(F)F)c1 [Compound 205]
- Plant response rating, Soybean (soybean; [6]): 90
- Soybean plant response rating (soybean; [7]): 70
- Plant response rating, Sedge, Umbrella (sedge, umbrella): 100
- Pigweed plant response rating (pigweed [1]): 85
- Plant response rating, Pigweed (pigweed [1]; [6]): 100
- Plant response rating, Pigweed (pigweed [1]; [7]): 85
- Pigweed plant response rating (pigweed [2]; Postemergence, 125 g ai/ha, 0 to 100 scale, 0 no effect, 100 complete control): 100
- Pigweed plant response rating (pigweed [2]; [8]): 100
- Plant response rating (scale of 0 to 100 where 0 is no effect and 100 is complete control), Oat, Wild (oat, wild): 5
- Oat, Wild plant response rating (oat, wild): 5
- Plant response rating, Oat, Wild (oat, wild; [6]): 10
- Plant response rating, Oat, Wild (oat, wild; [7]): 5
- Plant response rating (scale of 0 to 100 where 0 is no effect and 100 is complete control), Lambsquarters (lambsquarters): 85
- Lambsquarters plant response rating (lambsquarters): 85
- Plant response rating, Lambsquarters (lambsquarters; [6]): 85
- Plant response rating, Lambsquarters (lambsquarters; [7]): 90
- Wheat plant response rating (wheat; [9]): 5
- Wheat plant response rating (wheat; [10]): 15
- Plant response rating, Wheat (wheat; 13 to 15 days): 85
- Wheat plant response rating (wheat; [11]): 95
- Ragweed plant response rating (ragweed; [9]): 80
- Ragweed plant response rating (ragweed; [10]): 100
- Plant response rating, Ragweed (ragweed; 13 to 15 days): 98
- Ragweed plant response rating (ragweed; [11]): 100
- Plant response rating, Ryegrass, Italian (ryegrass, Italian [3]; [12]): 5
- Plant response rating, Ryegrass, Italian (ryegrass, Italian [3]; [13]): 5
- Ryegrass, Italian plant response rating (ryegrass, Italian [4]; [9]): 60
- Ryegrass, Italian plant response rating (ryegrass, Italian [4]; [10]): 70
- Plant response rating, Ryegrass, Italian (ryegrass, Italian [4]; 13 to 15 days): 90
- Ryegrass, Italian plant response rating (ryegrass, Italian [4]; [11]): 95
